Data reported in ChEMBL document CHEMBL3507680, “University of Dundee, Gates Library screen for HepG2 cell viability”.

Test: Human HepG2 cell viability assay in 384 well format
Type: toxicity, cell-based
Set-up: dose 125 nL, time 70.5 hour; cytotoxicity at 70.5 h: concentration not given beside the values
Conditions: HepG2 cells, read-out: Inhibition

Cc1nccn1C1CCCN(C(=O)c2ccc3nncn3c2)C1 (configuration not stated)
cytotoxicity at 70.5 h: -4.02%

Cc1cccc(N2CCC3(CCCN(C(=O)c4cccnc4)C3)CC2)n1
cytotoxicity at 70.5 h: 0.517%

CN1CC[C@H]2[C@H](C[C@@H](CN3CCCC3)N2c2nccs2)C1
cytotoxicity at 70.5 h: -3.73%

CC(=O)N1CCC(N2CCN3C(=O)N(c4ccccc4)C[C@H]3C2)CC1
cytotoxicity at 70.5 h: 3.66%

Cc1ccc(C(=O)N(C)Cc2ccc3c(c2)OCO3)c(=O)[nH]1
cytotoxicity at 70.5 h: -4.29%

COC(C)c1noc(CN2CCCNCC2)n1 (configuration not stated)
cytotoxicity at 70.5 h: -10%

O=C(NCN1CCc2ccccc2C1)c1cnccn1
cytotoxicity at 70.5 h: -8.88%

CCC(CO)N(Cc1ccc(F)cc1)Cc1c(C)nn(C)c1Cl (configuration not stated)
cytotoxicity at 70.5 h: -3.37%

O=C(Cn1cc(C2CC2)nn1)N(Cc1cccs1)CC1CCCO1 (configuration not stated)
cytotoxicity at 70.5 h: 10.4%

CCNc1cc(N2CCN(C(=O)c3ccc(OC)cc3)CC2)nc(C)n1
cytotoxicity at 70.5 h: -2.56%

CCS(=O)(=O)N1CC(=O)N(CCCc2ccccc2)CC(O)C1 (configuration not stated)
cytotoxicity at 70.5 h: -3.91%

COc1ncnc2c1CCN(CC1CCOC1)CC2 (configuration not stated)
cytotoxicity at 70.5 h: -13.6%

CC(Cn1ccnc1)NC(=O)NCCc1cccs1 (configuration not stated)
cytotoxicity at 70.5 h: -11.6%

c1cnn(CC2CN(CC3CCCCC3)CCO2)c1 (configuration not stated)
cytotoxicity at 70.5 h: -0.377%

CN(Cc1cnn(C)c1)C(=O)c1ccnc(OC2CCC2)c1
cytotoxicity at 70.5 h: 15.8%

CCn1ccc(NS(=O)(=O)c2cccc(CSC)c2)n1
cytotoxicity at 70.5 h: 3.12%

Cc1noc(CN(Cc2cccs2)C2CC2)n1
cytotoxicity at 70.5 h: 17.3%

CN(C)c1cc(C2CCCN(S(=O)(=O)c3cn(C)cn3)C2)ccn1 (configuration not stated)
cytotoxicity at 70.5 h: -4.64%

Nc1cc(CCC2CN(Cc3ccc4c(c3)OCCO4)CCO2)ccn1 (configuration not stated)
cytotoxicity at 70.5 h: 0.977%

COCCN(Cc1sccc1C)c1nc(C)nc2sccc12
cytotoxicity at 70.5 h: -3.07%

CSc1nccc(NCC2CNCCO2)n1 (configuration not stated)
cytotoxicity at 70.5 h: -5.51%

Cc1occc1C(=O)N1CCc2c(CNS(C)(=O)=O)cncc2C1
cytotoxicity at 70.5 h: -20.9%

CCn1cnnc1CNC(=O)N1CCC(CN2CCOCC2)CC1
cytotoxicity at 70.5 h: -14.7%

Cc1nc(CN2CCN(C(=O)CCc3nc(C(C)(C)C)no3)CC2)cs1
cytotoxicity at 70.5 h: 5.21%

Cc1nncn1CCN1C(=O)CC2(CCCC2)CC1=O
cytotoxicity at 70.5 h: -7.54%

O=C1CC(C(=O)NCc2ccccc2Oc2ccccc2F)CCN1 (configuration not stated)
cytotoxicity at 70.5 h: -1.83%

O=C(CN1CCS(=O)(=O)CC1)NC1CCOc2ccccc21 (configuration not stated)
cytotoxicity at 70.5 h: -3.04%

COCCC(=O)N1CCCC1c1nccc(C)n1 (configuration not stated)
cytotoxicity at 70.5 h: -12.1%

O=C1NC[C@]2(CC[C@@H](C(=O)N3CCC(O)CC3)CC2)Oc2ccccc21
cytotoxicity at 70.5 h: -4.51%

O=C([C@@H]1CSCN1)N1CCC2(CC1)CNCc1ccccc12
cytotoxicity at 70.5 h: 3.6%

CC(OCC(F)(F)F)C(=O)NCc1ccc(-n2cncn2)nc1 (configuration not stated)
cytotoxicity at 70.5 h: -12.1%

Cc1cc(C)c2nc(CN3CCC(CN)CC3)cc(O)c2c1
cytotoxicity at 70.5 h: 2.77%

CCc1oc(C(=O)N(C)Cc2nonc2C)cc1CN(CC)CC
cytotoxicity at 70.5 h: -16.6%

CCn1nc(CNC(=O)C2CCCN(CC(N)=O)C2)c2ccccc21 (configuration not stated)
cytotoxicity at 70.5 h: -14.9%

CCC(CC)CN1CCN(CC(=O)Nc2cccc3nsnc23)CC1
cytotoxicity at 70.5 h: -15.1%

Cc1cc(C)n(C2CCCN(C(=O)c3ccc(N(C)C)nc3)C2)n1 (configuration not stated)
cytotoxicity at 70.5 h: -2.57%

Cc1cc(NC(C)C(=O)N2CCN(c3ncccn3)CC2)ccc1F (configuration not stated)
cytotoxicity at 70.5 h: 9.5%

C[C@@H]1CN(Cc2ccoc2)C[C@]12CCN(CC(=O)N(C)C)C2=O
cytotoxicity at 70.5 h: -12%

CCCN(C)S(=O)(=O)NC(=O)c1ccc(CC)o1
cytotoxicity at 70.5 h: 0.645%

COc1cccc(CCCN2CCC(N(C)S(C)(=O)=O)CC2)c1
cytotoxicity at 70.5 h: 4.63%

CC(=O)c1cccc(OCCCC(=O)N(C)CCC(F)(F)F)c1
cytotoxicity at 70.5 h: -4.24%

COCCC(=O)N1CCCC2(CCCN2Cc2ccccc2F)C1 (configuration not stated)
cytotoxicity at 70.5 h: -107%

Cc1cc(-c2cnc(C)nc2CN(C)C(=O)c2ccccn2)on1
cytotoxicity at 70.5 h: -3.87%

O=C(c1ccc(F)c(Br)c1)N1CCCN2CCCC2C1 (configuration not stated)
cytotoxicity at 70.5 h: -8.34%

O=C(C1CCOC1)N1Cc2ccccc2OC2(CCOCC2)C1 (configuration not stated)
cytotoxicity at 70.5 h: -2.81%

CCCN(Cc1nccn1C)C(=O)c1cc(C(C)C)on1
cytotoxicity at 70.5 h: 3.45%

CC(C)[C@]1(O)CN(C(=O)COCC(N)=O)C[C@H]1C
cytotoxicity at 70.5 h: 23.2%

CN(CCc1ccccn1)C(=O)Nc1cccnc1-n1cccn1
cytotoxicity at 70.5 h: -16.2%

Cn1cc(CN2CCC(F)(F)C3(CCN(c4cccc(F)c4)C3)C2)cn1 (configuration not stated)
cytotoxicity at 70.5 h: 43.6%

CC(C)Cc1ncc2c(n1)CN(c1nccc(N(C)C)n1)C2
cytotoxicity at 70.5 h: -8.35%

Cc1cccc(C)c1OCCCN1CCC(n2cncn2)CC1
cytotoxicity at 70.5 h: 3.77%

CC(Cn1cccn1)NC(=O)Nc1ccccn1 (configuration not stated)
cytotoxicity at 70.5 h: -8.38%

O=C1CN(c2ccc(CNC(=O)NCc3ccoc3)cc2)CCN1
cytotoxicity at 70.5 h: -11.8%

Cc1cc(CN(C)Cc2cnc3c(c2)c(C)nn3C)no1
cytotoxicity at 70.5 h: 8.45%

Cc1ncsc1CN1C[C@@H]2CCCO[C@@H]2[C@H](Nc2ccccn2)C1
cytotoxicity at 70.5 h: -4.96%

Cc1nc(C)c(C(C)NCc2c(C(C)C)nn(C)c2N(C)C)s1 (configuration not stated)
cytotoxicity at 70.5 h: -0.665%

COc1c(C2CCCN2C(=O)c2scnc2C)c(C)nn1C (configuration not stated)
cytotoxicity at 70.5 h: -10.9%
